# Peptide text beside a SMILES is read from it. * marks the point of attachment. Cbz = O=C(OCc1ccccc1)*
# Legend:
# RGS4 [1] = assay: Immunocytochemistry, RGS4 level in ATE1 deficient HeLa cells; conditions: ATE1-KO HeLa cells
# RGS4 [2] = assay: Immunoblotting, proteasomal flux; conditions: MG132 10 μM, 6 h
# human ATE1 = assay: Intact protein analysis of purified ATE1; conditions: purified recombinant ATE1, GST-tag removed, LC-MS
# hATE1 [3] = target: T1, hATE1 (Homo sapiens, UniProt O95260); assay: Differential scanning fluorimetry of hATE1 with or without ligands; conditions: DSF; for change of melting temperature of hATE1 in the presence of ligand: absence of tRNA, result in words
# T1 sequence (O95260 1-518 isoform O95260-2): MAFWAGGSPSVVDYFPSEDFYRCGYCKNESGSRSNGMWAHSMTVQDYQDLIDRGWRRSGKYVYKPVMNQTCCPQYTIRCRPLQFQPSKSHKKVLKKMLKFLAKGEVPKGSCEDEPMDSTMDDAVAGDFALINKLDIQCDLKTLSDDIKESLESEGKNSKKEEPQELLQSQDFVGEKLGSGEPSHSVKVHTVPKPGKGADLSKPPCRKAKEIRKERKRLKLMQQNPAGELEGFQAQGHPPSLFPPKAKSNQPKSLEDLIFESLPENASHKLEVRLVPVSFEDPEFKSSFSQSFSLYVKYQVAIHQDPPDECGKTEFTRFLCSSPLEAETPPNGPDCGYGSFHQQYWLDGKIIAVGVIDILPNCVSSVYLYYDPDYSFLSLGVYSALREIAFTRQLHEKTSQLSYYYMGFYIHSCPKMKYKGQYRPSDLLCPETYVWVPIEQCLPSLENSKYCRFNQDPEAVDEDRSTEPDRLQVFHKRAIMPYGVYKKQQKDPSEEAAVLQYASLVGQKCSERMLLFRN
# hATE1 [4] = target: T1, hATE1; assay: MST direct binding assay, hATE1-peptide interaction; conditions: with vs without A + T arms
compound,measurement,setting,value
"WT hATE1: human arginyl-tRNA-protein transferase 1 isoform 2, wild type, recombinant",RGS4 level by immunostaining,RGS4 [1],but not in those transfected with WT ATE1
same,RGS4 proteasomal flux / RGS4 stabilization,RGS4 [2]; ATE1-KO HeLa cells expressing the ATE1 construct,restored the P.F. index
same,small arginylated fraction of ATE1,human ATE1,< 3 % of total
O=C(O)CN(CCN(CC(=O)O)CC(=O)O)CC(=O)O [EDTA],thermal stability decrease of ATE1 on EDTA treatment,"hATE1 [3]; increasing amount of EDTA, duplicate measurements",~ 7 °C
NC(=O)CC[C@H](N)C(N)=O [glutamine amide],change of melting temperature of hATE1 in the presence of ligand,hATE1 [3],no change was observed
CC(C)C[C@@H](C=O)NC(=O)[C@H](CC(C)C)NC(=O)[C@H](CC(C)C)NC(=O)OCc1ccccc1 [MG132] (Cbz-Leu-Leu-Leu-aldehyde),RGS4 accumulation post-MG132,RGS4 [2]; ATE1-KO HeLa cells,no RGS4 accumulation
same,"normalized P.F. index (fold change), RGS4 accumulation",RGS4 [2]; WT ATE1 HeLa cells,~ 29 fold change
RDDIAA-FAM,fold enhancement of binding affinity by tRNA-mimetic (A + T arms),hATE1 [4],15 -fold
"N=C(N)NCCC[C@H](N)C(=O)O [free arginine, arginine]",change of melting temperature of hATE1 in the presence of ligand,hATE1 [3],no change was observed
